Assays:
[1] = tested on: Italian ryegrass (Lolium multiflorum); assay: Test A preemergence, visual plant response rating; type: in vivo
How it was run: (§1)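 Ratings use a 0–100 visual scale (100 = complete control) against untreated controls, scored about 10 days after greenhouse treatment. Test chemicals were formulated in surfactant-containing non-phytotoxic solvent and applied either as soil spray after planting (preemergence) or onto one- to two-leaf, 2–10 cm plants (postemergence).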

[2] = tested on: barnyardgrass (Echinochloa crus-galli); assay: Test A preemergence, visual plant response rating; type: in vivo
How it was run: as §1

[3] = tested on: foxtail, giant (giant foxtail, Setaria faberii); assay: Test A preemergence, visual plant response rating; type: in vivo
How it was run: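 Compared with untreated controls, treated plants received a visual injury score on a 0–100 scale around 10 days after application. The compound, in a non-phytotoxic solvent with surfactant, was given as a preemergence soil spray or postemergence at the one- to two-leaf stage.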

[4] = tested on: kochia (Kochia scoparia); assay: Test A preemergence, visual plant response rating; type: in vivo
How it was run: as §1

[5] = tested on: pigweed (Amaranthus retroflexus); assay: Test A preemergence, visual plant response rating; type: in vivo
How it was run: as §1

[6] = tested on: Italian ryegrass (Lolium multiflorum); assay: Test A postemergence, visual plant response rating; type: in vivo
How it was run: as §1

[7] = tested on: barnyardgrass (Echinochloa crus-galli); assay: Test A postemergence, visual plant response rating; type: in vivo
How it was run: as §1

[8] = tested on: blackgrass (Alopecurus myosuroides); assay: Test A postemergence, visual plant response rating; type: in vivo
How it was run: as §1

[9] = tested on: corn (Zea mays); assay: Test A postemergence, visual plant response rating; type: in vivo
How it was run: as §1

[10] = tested on: foxtail, giant (giant foxtail, Setaria faberii); assay: Test A postemergence, visual plant response rating; type: in vivo
How it was run: as §1

[11] = tested on: galium (catchweed bedstraw, Galium aparine); assay: Test A postemergence, visual plant response rating; type: in vivo
How it was run: as §1

[12] = tested on: kochia (Kochia scoparia); assay: Test A postemergence, visual plant response rating; type: in vivo
How it was run: as §1

[13] = tested on: pigweed (Amaranthus retroflexus); assay: Test A postemergence, visual plant response rating; type: in vivo
How it was run: as §1

[14] = tested on: ragweed (common ragweed, Ambrosia elatior); assay: Test A postemergence, visual plant response rating; type: in vivo
How it was run: as §1

[15] = tested on: wheat (Triticum aestivum); assay: Test A postemergence, visual plant response rating; type: in vivo
How it was run: as §1

[16] = tested on: barnyardgrass (Echinochloa crus-galli); assay: Test B flooded paddy test, visual plant response rating; type: in vivo; details: 250 g ai/ha, Flood, applied to paddy water, 2-leaf stage, evaluated after 13 to 15 days
How it was run: (§2)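 Test pots are flooded 3 cm above the soil at treatment, and the test substance is introduced into this standing water. After keeping the flood level and growing plants, treated at the 2-leaf stage, for 13 to 15 days under glass, injury is assessed visually versus controls.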

[17] = tested on: ducksalad (Heteranhera limosa); assay: as above; type: in vivo; details: 250 g ai/ha, Flood, applied to paddy water, 2-leaf stage, evaluated after 13 to 15 days
How it was run: as §2

[18] = tested on: rice (Oryza sativa); assay: as above; type: in vivo; details: 250 g ai/ha, Flood, applied to paddy water, 2-leaf stage, evaluated after 13 to 15 days
How it was run: as §2

[19] = tested on: sedge, umbrella (small-flower umbrella sedge, Cyperus difformis); assay: as above; type: in vivo; details: 250 g ai/ha, Flood, applied to paddy water, 2-leaf stage, evaluated after 13 to 15 days
How it was run: as §2

[20] = 125 g ai/ha, preemergence, 0 to 100 scale, 0 no effect, 100 complete control
[21] = 500 g ai/ha Preemergence, approx. 10 days
[22] = 500 g ai/ha, postemergence, 0 is no effect, 100 is complete control
[23] = Postemergence, 125 g ai/ha, 0 to 100 scale (0 no effect, 100 complete control)

CO/N=C(\c1c(O)c(C)nn(C)c1=O)c1cc(Br)cc2ccccc12 [Compound 91, 4-[(Z)-(3-bromo-1-naphthalenyl)(methoxyimino)methyl]-5-hydroxy-2,6-dimethyl-3(2H)-pyridazinone]
Ryegrass, Italian plant response rating [1, 20]: 80 | Ryegrass, Italian plant response rating (0 to 100 scale) [1, 21]: 100 | Barnyardgrass plant response rating [2, 20]: 100 | Barnyardgrass plant response rating (0 to 100 scale) [2, 21]: 100 | Foxtail, Giant plant response rating [3, 20]: 100 | Foxtail, Giant plant response rating (0 to 100 scale) [3, 21]: 100 | Kochia plant response rating [4, 20]: 60 | Kochia plant response rating (0 to 100 scale) [4, 21]: 60 | Pigweed plant response rating [5, 20]: 100 | Pigweed plant response rating (0 to 100 scale) [5, 21]: 100 | Ryegrass, Italian plant response rating (0 to 100 scale) [6, 22]: 100 | Ryegrass, Italian plant response rating [6, 23]: 100 | Barnyardgrass plant response rating (0 to 100 scale) [7, 22]: 80 | Barnyardgrass plant response rating [7, 23]: 80 | Blackgrass plant response rating (0 to 100 scale) [8, 22]: 100 | Blackgrass plant response rating [8, 23]: 100 | Corn plant response rating (0 to 100 scale) [9, 22]: 70 | Corn plant response rating [9, 23]: 30 | Foxtail, Giant plant response rating (0 to 100 scale) [10, 22]: 90 | Foxtail, Giant plant response rating [10, 23]: 80 | Galium plant response rating (0 to 100 scale) [11, 22]: 100 | Galium plant response rating [11, 23]: 100 | Kochia plant response rating (0 to 100 scale) [12, 22]: 80 | Kochia plant response rating [12, 23]: 60 | Pigweed plant response rating (0 to 100 scale) [13, 22]: 90 | Pigweed plant response rating [13, 23]: 80 | Ragweed plant response rating (0 to 100 scale) [14, 22]: 100 | Ragweed plant response rating [14, 23]: 100 | Wheat plant response rating (0 to 100 scale) [15, 22]: 80 | Wheat plant response rating [15, 23]: 50 | Plant response rating, Barnyardgrass (0 to 100 scale, 0 is no effect, 100 is complete control) [16]: 65 | Plant response rating, Ducksalad (0 to 100 scale, 0 is no effect, 100 is complete control) [17]: 60 | Plant response rating, Rice (0 to 100 scale, 0 is no effect, 100 is complete control) [18]: 20 | Plant response rating, Sedge, Umbrella (0 to 100 scale, 0 is no effect, 100 is complete control) [19]: 60 | melting point: 129 to 133 °C

From patent US20210045385A1, “PYRIDAZINONE-SUBSTITUTED KETOXIMES AS HERBICIDES” (FMC Corporation, priority 2018, published 2021)
